Experimental data taken from patent publication US20050079228A1, “Clear, stable topical compositions of clarithromycin and processes for their preparation” (priority 2003, published 2005).

How the values were obtained:
[1] = Solubility of clarithromycin in non-aqueous media on complexation with zinc salt; type: physicochemical; settings: molar ratio about 1:0.2 to about 1:2
Text: Clarithromycin and the zinc salt are preferably combined in a molar ratio ranging from about 1:0.2 to about 1:2. This ratio permits the occurrence of effective complexation of the zinc and clarithromycin.

gram-positive bacteria = settings: disclosed in U.S. Pat. No. 4,331,803; cited from earlier work

CC[C@H]1OC(=O)[C@H](C)[C@@H](O[C@H]2C[C@@](C)(OC)[C@@H](O)[C@H](C)O2)[C@H](C)[C@@H](O[C@@H]2O[C@H](C)C[C@H](N(C)C)[C@H]2O)[C@](C)(OC)C[C@@H](C)C(=O)[C@H](C)[C@@H](O)[C@]1(C)O [clarithromycin]
Solubility of clarithromycin in a non-aqueous media [1]: increases the solubility | Antibacterial activity against gram-positive bacteria (gram-positive bacteria): strong antibacterial activity
